Data published in article PMC8199500, “Novel Bis- and Mono-Pyrrolo[2,3-d]pyrimidine and Purine Derivatives: Synthesis, Computational Analysis and Antiproliferative Evaluation” (Molecules, 2021).

Tests used:
[1] = tested on: cervical carcinoma (HeLa) cells; assay: MTT proliferation assay, HeLa cells; assay type: cell-based, human; conditions: 72 h incubation
Description: (§1) Human carcinoma cell lines A549 (lung carcinoma), HeLa (cervical carcinoma), SW620 (colorectal adenocarcinoma, metastatic) and CFPAC-1 (pancreatic cancer, derived from metastatic: liver), and normal human foreskin (HFF-1) fibroblasts were obtained from the American Type Culture Collection (ATCC, Manassas, VA, USA). Cells were cultured in humidified atmosphere at 37 °C with 5% CO2. As growth medium, Dulbecco′s modified Eagle medium (DMEM) was used with the addition of fetal bovine serum (10%), L-glutamine (2 mM) and antibiotics: streptomycin ([…]) and penicillin (100 U/mL).
(§2) Cells were seeded onto 96-well microtiter plates at a seeding density of 3000 cells/well for carcinoma cell lines, and 5000 cells/well for normal human fibroblasts. The next day, cells were treated with test agents in five different concentrations (0.01–100 µM) and further incubated for 72 h. […] Following 72 h incubation, the MTT assay was performed and measured absorbances were transformed into percentage of cell growth as described previously. Results were obtained from three independent experiments. IC50 values were calculated using linear regression analysis and results were statistically analyzed by ANOVA, Tukey post-hoc test (p < 0.05).

[2] = tested on: ductal pancreatic adenocarcinoma (CFPAC-1) cells; assay: MTT proliferation assay, CFPAC-1 cells; assay type: cell-based, human
Description: as §1, §2

[3] = tested on: lung adenocarcinoma (A549) cells; assay: MTT proliferation assay, A549 cells; assay type: cell-based, human
Description: as §1, §2

[4] = tested on: metastatic colorectal adenocarcinoma (SW620) cells; assay: MTT proliferation assay, SW620 cells; assay type: cell-based, human
Description: as §1, §2

[5] = tested on: normal human foreskin fibroblasts (HFF-1); assay: MTT proliferation assay, normal fibroblasts HFF-1; assay type: cell-based; conditions: 72 h incubation
Description: as §1, §2

[6] = Homo sapiens, CFPAC-1, 72 h incubation
[7] = Homo sapiens, A549, 72 h incubation
[8] = Homo sapiens, SW-620, 72 h incubation

Row | Compound | IC50 ([1]; Homo sapiens, HeLa) [µM] | IC50 [2, 6] [µM] | melting point [°C] | IC50 [3, 7] [µM] | IC50 [4, 8] [µM] | IC50 [1] [µM] | IC50 ([2]; 72 h incubation) [µM] | IC50 ([3]; 72 h incubation) [µM] | IC50 ([4]; 72 h incubation) [µM] | IC50 [5] [µM]
1 | c1nc(N2CCCCC2)c2ccn(CCn3cc(COc4ccc(-c5ccc(OCc6cn(CCn7ccc8c(N9CCCCC9)ncnc87)nn6)cc5)cc4)nn3)c2n1 [6b, 4,4′-Bis{[1-(2-(4-(piperidin-1-yl)-7H-pyrrolo[2,3-d]pyrimidin-7-yl)ethyl)-1H-1,2,3-triazol-4-yl]methoxy}-1,1′-biphenyl] | 68.5 ± 3.2 | 17.4 ± 6.3 | 137 to 139 | 53.9 ± 2.1 | 24.7 ± 8.7 |  |  |  |  | 
2 | c1nc(N2CCCCC2)c2ncn(CCn3cc(CCCc4cn(CCn5cnc6c(N7CCCCC7)ncnc65)nn4)nn3)c2n1 [9c, 1,3-Bis{1-[2-(6-(piperidin-1-yl)-9H-purin-9-yl)ethyl]-1H-1,2,3-triazol-4-yl}propane] | 41.2 ± 0.99 | 53.9 ± 3.4 |  | > 100 | > 100 |  |  |  |  | 
3 | C#CCCCc1cn(CCn2cnc3c(N4CCCCC4)ncnc32)nn1 [9g, 9-{2-[4-(pent-4-yn-1-yl)-1H-1,2,3-triazol-1-yl]ethyl}-6-(piperidin-1-yl)-9H-purine] | 72.2 ± 9 | 75.2 ± 12.2 |  | > 100 | > 100 |  |  |  |  | 
4 | {1-[2-(4-Chloro-7H-pyrrolo[2,3-d]pyrimidin-7-yl)ethyl]-1H-1,2,3-triazol-4-yl}methyl ether [5d] |  |  |  |  |  | > 100 | 36.5 ± 3.9 | > 100 | 53.5 ± 4.8 | 
5 | C#CCOc1ccc(OCc2cn(CCn3cnc4c(N5CCCCC5)ncnc43)nn2)cc1 [9e, 6-(piperidin-1-yl)-9-{2-[4-((4-(prop-2-yn-1-yloxy)phenoxy)methyl)-1H-1,2,3-triazol-1-yl]ethyl}-9H-purine] | 17.1 ± 1.3 | 23.4 ± 4.2 | 233 to 236 | 58.7 ± 10.2 | 35.7 ± 0.79 |  |  |  |  | 
6 | Clc1ncnc2c1ccn2CCn1cc(COc2ccc(OCc3cn(CCn4ccc5c(Cl)ncnc54)nn3)cc2)nn1 [5a, 1,4-Bis{[1-(2-(4-chloro-7H-pyrrolo[2,3-d]pyrimidin-7-yl)ethyl)-1H-1,2,3-triazol-4-yl]methoxy}benzene] | 77 ± 2.6 | > 100 |  | > 100 | > 100 |  |  |  |  | 
7 | C#CCCCc1cn(CCn2ccc3c(Cl)ncnc32)nn1 [5g, 4-chloro-7-{2-[4-(pent-4-yn-1-yl)-1H-1,2,3-triazol-1-yl]ethyl}-7H-pyrrolo[2,3-d]pyrimidine] | 75 ± 3.5 | 19.5 ± 4 |  | > 100 | 80.5 ± 14.9 |  |  |  |  | 
8 | c1nc(N2CCCC2)c2ccn(CCn3cc(CCCc4cn(CCn5ccc6c(N7CCCC7)ncnc65)nn4)nn3)c2n1 [7c, 1,3-Bis{1-[2-(4-(pyrrolidin-1-yl)-7H-pyrrolo[2,3-d]pyrimidin-7-yl)ethyl]-1H-1,2,3-triazol-4-yl}propane] | 80 ± 1.5 | 65.3 ± 5.7 | 170 to 172 | > 100 | > 100 |  |  |  |  | 
9 | c1nc(N2CCCCC2)c2ncn(CCn3cc(COc4ccc(OCc5cn(CCn6cnc7c(N8CCCCC8)ncnc76)nn5)cc4)nn3)c2n1 [9a, 1,4-Bis{[1-(2-(6-(piperidin-1-yl)-9H-purin-9-yl)ethyl)-1H-1,2,3-triazol-4-yl]methoxy}benzene] | 16.2 ± 0.05 | 9.1 ± 1.3 |  | 53.5 ± 8 | 43.5 ± 4.4 |  |  |  |  | 0.76
10 | {1-[2-(4-(Pyrrolidin-1-yl)-7H-pyrrolo[2,3-d]pyrimidin-7-yl)ethyl]-1H-1,2,3-triazol-4-yl}methyl ether [7d] |  |  |  |  |  | > 100 | > 100 | > 100 | > 100 | 
11 | c1nc(N2CCCCC2)c2ccn(CCn3cc(COc4ccc(OCc5cn(CCn6ccc7c(N8CCCCC8)ncnc76)nn5)cc4)nn3)c2n1 [6a, 1,4-Bis{[1-(2-(4-(piperidin-1-yl)-7H-pyrrolo[2,3-d]pyrimidin-7-yl)ethyl)-1H-1,2,3-triazol-4-yl]methoxy}benzene] | > 100 | > 100 | 185 to 187 | > 100 | > 100 |  |  |  |  | 
12 | c1nc(N2CCCCC2)c2ncn(CCn3cc(COc4ccc(-c5ccc(OCc6cn(CCn7cnc8c(N9CCCCC9)ncnc87)nn6)cc5)cc4)nn3)c2n1 [9b, 4,4′-Bis((1-(2-(6-(piperidin-1-yl)-9H-purin-9-yl)ethyl)-1H-1,2,3-triazol-4-yl)methoxy)-1,1′-biphenyl] | 3.8 ± 0.81 | 8.1 ± 1.3 |  | 12.3 ± 3.4 | 5.2 ± 2.2 |  |  |  |  | 0.79
13 | Clc1ncnc2c1ccn2CCn1cc(COc2ccc(-c3ccc(OCc4cn(CCn5ccc6c(Cl)ncnc65)nn4)cc3)cc2)nn1 [5b, 4,4′-Bis{[1-(2-(4-chloro-7H-pyrrolo[2,3-d]pyrimidin-7-yl)ethyl)-1H-1,2,3-triazol-4-yl]-methoxy}-1,1′-biphenyl] | > 100 | > 100 |  | 6.3 ± 1.2 | > 100 |  |  |  |  | 0.13
14 | c1nc(N2CCCC2)c2ccn(CCn3cc(COc4ccc(-c5ccc(OCc6cn(CCn7ccc8c(N9CCCC9)ncnc87)nn6)cc5)cc4)nn3)c2n1 [7b, 4,4′-Bis{[1-(2-(4-(pyrrolidin-1-yl)-7H-pyrrolo[2,3-d]pyrimidin-7-yl)ethyl)-1H-1,2,3-triazol-4-yl]methoxy}-1,1′-biphenyl] | 54.6 ± 5.2 | 77.4 ± 3.5 | 187 to 189 | 69 ± 1.2 | > 100 |  |  |  |  | 
15 | 6-(piperidin-1-yl)-9-{2-[4-(((4′-(prop-2-yn-1-yloxy)-[1,1′-biphenyl]-4-yl)oxy)methyl)-1H-1,2,3-triazol-1-yl]ethyl}-9H-purine [10f] |  |  |  |  |  | 8.1 ± 2.2 | 6.5 ± 0.78 | 62.1 ± 2.3 | 98 ± 1.3 | 
16 | Clc1ncnc2c1ccn2CCn1cc(CCCc2cn(CCn3ccc4c(Cl)ncnc43)nn2)nn1 [5c, 1,3-Bis{1-[2-(4-chloro-7H-pyrrolo[2,3-d]pyrimidin-7-yl)ethyl]-1H-1,2,3-triazol-4-yl}propane] | 99.7 ± 5.9 | 74.9 ± 3.8 |  | 99.6 ± 1.5 | > 100 |  |  |  |  | 
17 | {1-[2-(6-(Piperidin-1-yl)-9H-purin-9-yl)ethyl]-1H-1,2,3-triazol-4-yl}methyl ether [9d] |  |  |  |  |  | 34.7 ± 12.1 | 56.8 ± 2.9 | 73.1 ± 7.7 | 66.1 ± 3 | 

Second part, led by results:

Row | IC50 ([1]; Homo sapiens, HeLa) [µM] | IC50 [2, 6] [µM] | melting point [°C] | IC50 [3, 7] [µM] | IC50 [4, 8] [µM] | IC50 [1] [µM] | IC50 ([2]; 72 h incubation) [µM] | IC50 ([3]; 72 h incubation) [µM] | IC50 ([4]; 72 h incubation) [µM] | Compound | IC50 [5] [µM]
18 | > 100 | > 100 |  | > 100 | > 100 |  |  |  |  | Nc1ncnc2c1ncn2CCn1cc(COc2ccc(OCc3cn(CCn4cnc5c(N)ncnc54)nn3)cc2)nn1 [11a, 1,4-Bis{[1-(2-(6-amino-9H-purin-9-yl)ethyl)-1H-1,2,3-triazol-4-yl]methoxy}benzene] | 
19 | > 100 | > 100 | 191 to 193 | > 100 | > 100 |  |  |  |  | C#CCOCc1cn(CCn2cnc3c(N)ncnc32)nn1 [11h, 6-amino-9-{2-[4-((prop-2-yn-1-yloxy)methyl)-1H-1,2,3-triazol-1-yl]ethyl}-9H-purine] | 
20 | > 100 | > 100 | > 280 | > 100 | > 100 |  |  |  |  | C#CCOc1ccc(OCc2cn(CCn3cnc4c(N)ncnc43)nn2)cc1 [11e, 6-amino-9-{2-[4-((4-(prop-2-yn-1-yloxy)phenoxy)methyl)-1H-1,2,3-triazol-1-yl]ethyl}-9H-purine] | 
21 | > 100 | > 100 | 226 to 228 | > 100 | > 100 |  |  |  |  | C#CCCCc1cn(CCn2cnc3c(N)ncnc32)nn1 [11g, 6-Amino-9-{2-[4-(pent-4-yn-1-yl)-1H-1,2,3-triazol-1-yl]ethyl}-9H-purine] | 
22 |  |  |  |  |  | 66.9 ± 11.2 | 52.5 ± 4.6 | 87.3 ± 4.4 | 63.4 ± 3.6 | {1-[2-(6-(Piperidin-1-yl)-9H-purin-9-yl)ethyl]-1H-1,2,3-triazol-4-yl}methyl ether [10d] | 
23 | 60.6 ± 5.9 | 48.5 ± 1.6 |  | 95 ± 3.2 | 98.3 ± 7.4 |  |  |  |  | c1nc(N2CCCC2)c2ncn(CCn3cc(COc4ccc(OCc5cn(CCn6cnc7c(N8CCCC8)ncnc76)nn5)cc4)nn3)c2n1 [10a, 1,4-Bis{[1-(2-(6-(pyrrolidin-1-yl)-9H-purin-9-yl)ethyl)-1H-1,2,3-triazol-4-yl]methoxy}benzene] | 
24 |  |  |  |  |  | > 100 | > 100 | > 100 | > 100 | {1-[2-(6-Amino-9H-purin-9-yl)ethyl]-1H-1,2,3-triazol-4-yl}methyl ether [11d] | 
